Data published in patent US20120289452A1, “COMPOSITIONS AND METHODS FOR TREATING AND PREVENTING NECROSIS” (Ilana Nathan, priority 2002, published 2012).
Residues, ends and D or L forms follow the SMILES beside them. *: point of attachment. MeOSuc = COC(=O)CCC(=O)*; CH2Cl = ClC*

What was measured:
PC-12 cells [1] = assay: STS plus oligomycin-induced necrosis in PC-12 cells, morphological quantification; assay type: cell-based, rat
Method: (§1) The rat pheochromocytoma PC-12 cell line was propagated in DMEM medium (Gibco, BRL), supplemented with 5% heat-inactivated calf serum, 10% heat-inactivated horse serum, and 2 mM L-glutamine. […]. Then the cells were washed twice and maintained in glucose-free RPMI-1640 medium (Beit Haemek, Israel), and supplemented with 2 mM pyruvate and 10% dialyzed FCS for one hour. U-937 and PC-12 cells were incubated with and without 1 μM oligomycin (Sigma) for 45 min, and cells were treated with or without 1.25 μM staurosporine (STS) (Sigma) for an additional seven hours in U-937 cells or five hours in PC-12 cells. Alternatively, cells were treated with or without 100 ng/ml anti-Fas (Upstate biotechnology, USA) for the same time period.
[…] The inhibitor was dissolved in DMSO to a concentration of 100 mM. The final concentration of DMSO in the system was 0.2%, and was added to all treatments. In separate experiments, 200 μM of an elastase inhibitor (CE1037, manufactured by Cortech Inc.) was administered 30 min before addition of the inducers. The inhibitor was dissolved in PBS.
(§2) Cells undergoing morphological changes associated with apoptotic or necrotic cell death were monitored as described by McGahon et al. [Methods Cell Biol, 46: p. 153-85 (1995)]. Briefly, 1 ml of the cells was collected and centrifuged. The pellet was resuspended in a 20-fold dilution of the dye mixture (composed of 100 μg/ml acridine orange and 100 μg/ml ethidium bromide in PBS), placed on a glass slide and viewed on an inverted fluorescence microscope. A minimum of 200 cells was scored for each sample.

PC-12 cells [2] = assay: STS-induced apoptosis in PC-12 cells, morphological quantification; assay type: cell-based, rat
Method: as §1
(§3) 200 μM elastase inhibitor III (MeOSuc-Ala-Ala-Pro-Val-CMK from Calbiochem) when added was administered 30 min before addition of the inducers. The inhibitor was dissolved in DMSO to a concentration of 100 mM. The final concentration of DMSO in the system was 0.2%, and was added to all treatments. In separate experiments, 200 μM of an elastase inhibitor (CE1037, manufactured by Cortech Inc.) was administered 30 min before addition of the inducers. The inhibitor was dissolved in PBS.
as §2

PC-12 cells [3] = assay: KCN-induced necrosis in PC-12 cells, morphological quantification; assay type: cell-based, rat
Method: The rat pheochromocytoma PC-12 cell line was propagated in DMEM medium (Gibco, BRL), supplemented with 5% heat-inactivated calf serum, 10% heat-inactivated horse serum, and 2 mM L-glutamine. PC-12 cells in logarithmic phase were seeded at a concentration of 1.2×10^5/well in 24-well plates (Cellstar). Then the cells were washed twice and maintained in glucose-free RPMI-1640 medium (Beit Haemek, Israel), and supplemented with 2 mM pyruvate and 10% dialyzed FCS for one hour. […] Alternatively, cells were treated with or without 100 ng/ml anti-Fas (Upstate biotechnology, USA) for the same time period. U-937 and PC-12 cells cultured in complete RPMI-1640 medium were washed and seeded in glucose-free RPMI-1640 medium, as described above, and treated with or without 0.5 mM KCN (Merck, Germany) for seven hours with U-937 cells, or for five hours with PC-12 cells. […] Cells undergoing morphological changes associated with apoptotic or necrotic cell death were monitored as described by McGahon et al. [Methods Cell Biol, 46: p. […] The pellet was resuspended in a 20-fold dilution of the dye mixture (composed of 100 μg/ml acridine orange and 100 μg/ml ethidium bromide in PBS), placed on a glass slide and viewed on an inverted fluorescence microscope. A minimum of 200 cells was scored for each sample.

U-937 cells [4] = assay: Anti-Fas-induced apoptosis/necrosis in U-937 cells, morphological quantification (acridine orange/ethidium bromide); assay type: cell-based, Human; details: for effect on anti-Fas-induced apoptotic and necrotic cell death: anti-Fas with or without oligomycin, inhibitor added
Method: (§4) Human promonocytic U-937 cells in logarithmic phase were seeded at a concentration of 4×10^5/ml. Afterwards the cells were washed twice and seeded again in glucose-free RPMI-1640 medium (Beit Haemek, Israel) supplemented with 2 mM pyruvate (Beit Haemek, Israel) and 10% dialyzed FCS (Gibco, BRL) for one hour.
as §1, §3, §2

elastase-like activity [5] = assay: Gelatin substrate gel electrophoresis of lysates of U-937 cells treated with KCN and elastase inhibitor; assay type: cell-based, Human; details: 5 mM KCN, 200 μM elastase inhibitor, 3 h
U-937 cells [6] = assay: STS plus oligomycin-induced cell killing in U-937 cells, trypan blue exclusion; assay type: cell-based, Human
Method: as §4, §1
200 μM elastase inhibitor III (MeOSuc-Ala-Ala-Pro-Val-CMK from Calbiochem) when added was administered 30 min before addition of the inducers. […]
At each time point, cell viability was determined by the trypan blue exclusion method (Daniel C P, Parreira A., et al. Leukemia Res. 11:191-196 (1987). Assays were performed in duplicate.

elastase-like activity [7] = assay: Gelatin substrate gel electrophoresis of U-937 cell lysates, gel incubated with protease inhibitors; assay type: biochemical, Human; details: 100 μM inhibitor in gel incubation
U-937 cells [8] = details: elastase inhibitor III without KCN
[9] = 1.25 μM STS with 1 μM oligomycin, 100 μM elastase inhibitor
[10] = lysate of U-937 cells treated with 0.5 mM KCN for 3 h
[11] = lysate of U-937 cells treated with anti-Fas and oligomycin for 3 h

CN[C@@H]1C[C@H]2O[C@@](C)([C@@H]1OC)n1c3ccccc3c3c4c(c5c6ccccc6n2c5c31)C(=O)NC4 [STS, staurosporine]
necrosis (PC-12 cells [1]; 1.25 μM STS with 1 μM oligomycin): about 70%
apoptosis (PC-12 cells [2]; 1.25 μM STS alone, compared to control): about 73%

CC(C)(CS(=O)(=O)c1ccc(OC(=O)C(C)(C)c2ccc(C(C)(C)C(=O)Oc3ccc(S(=O)(=O)CC(C)(C)C(=O)O)cc3)cc2)cc1)C(=O)O [CE1037]
effect of inhibitor by itself (PC-12 cells [3]; 200 μM inhibitor without KCN): inactive by itself
effect on necrosis induced by KCN (PC-12 cells [3]; 0.5 mM KCN, 200 μM inhibitor): significantly inhibited necrosis
effect on anti-Fas-induced apoptotic and necrotic cell death (U-937 cells [4]): completely abrogated apoptotic as well as necrotic cell death
necrotic cell death (PC-12 cells [1]; [9]): 9%
necrotic cell death shifted to apoptotic cell death (PC-12 cells [1]; [9]): 39%
effect on necrosis induced by STS (PC-12 cells [1]; 1.25 μM STS with 1 μM oligomycin, 200 μM elastase inhibitor): completely abrogated necrosis
effect of inhibitor by itself (PC-12 cells [1]; 200 μM elastase inhibitor alone): inactive by itself
band of protease activity when KCN administered with inhibitor (elastase-like activity [5]): disappeared
effect on apoptosis induced by STS (PC-12 cells [2]; 1.25 μM STS, 200 μM elastase inhibitor): significantly inhibited apoptosis
effect of inhibitor by itself (PC-12 cells [2]; 200 μM elastase inhibitor without STS): inactive by itself
effect of inhibitor by itself on cell survival (U-937 cells [6]; 48 hours, inhibitor alone): slight effect by itself
effect on cell killing induced by STS and oligomycin (cell viability, trypan blue) (U-937 cells [6]; prolonged incubation of 48 hours): significantly inhibited cell killing

CC[C@H]1/C=C/C=C/C[C@@H](C)[C@H](O)[C@@](C)(O)C(=O)[C@@H](C)[C@H](O)[C@@H](C)C(=O)[C@@H](C)[C@H](O)[C@@H](C)/C=C/C(=O)O[C@@H]2[C@H](C)[C@H](CC1)O[C@]1(CC[C@H](C)[C@H](C[C@@H](C)O)O1)[C@H]2C [Oligomycin, oligomycin]
effect of oligomycin by itself on cell death (U-937 cells [4]; 1 μM oligomycin alone): inactive by itself
effect of oligomycin by itself on cell death (PC-12 cells [1]; oligomycin alone): inactive by itself

CC(C)C[C@H](NC(=O)N[C@H](C(=O)N[C@@H](CCC(N)=O)C(=O)N[C@@H](C)C=O)[C@@H]1CCNC(=N)N1)C(=O)O [elastinal]
band of protease activity in presence of inhibitor (elastase-like activity [7]; [10]): disappeared
band of protease activity in presence of inhibitor (elastase-like activity [7]; [11]): disappeared
effect on anti-Fas-induced apoptotic and necrotic cell death (U-937 cells [4]): had no effect

COC(=O)CCC(=O)N[C@@H](C)C(=O)N[C@@H](C)C(=O)N1CCC[C@H]1C(=O)N[C@H](C(=O)CCl)C(C)C [elastase inhibitor III, MeOSuc-Ala-Ala-Pro-Val-CMK] (MeOSuc-AAPV-CH2Cl)
cell damage by inhibitor alone (U-937 cells [8]): did not cause any cell damage

Cc1ccc(S(=O)(=O)N[C@@H](Cc2ccccc2)C(=O)CCl)cc1 [TPCK]
band of protease activity in presence of inhibitor (elastase-like activity [7]; [10]): not
band of protease activity in presence of inhibitor (elastase-like activity [7]; [11]): not
